In patent US20170334899A1, “AMINO-SUBSTITUTED ISOTHIAZOLES” (Bayer Pharma Aktiengesellschaft, priority 2014, published 2017) one finds IC50 data, which are given here for 25 compounds.

For this assay, the system named is human cervical tumor cell line HeLa (ATCC CCL-2). The assay is described as follows: SAC-Formation - Paclitaxel-Induced Assay. Type of assay: cell-based. The following applies: 24 h, HeLa cells, paclitaxel 0.05 μM, test range 0.005 μM-20 μM, read-out: IC50 [mol/l] SAC-Formation - Paclitaxel-Induced Assay. The essentials:
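HeLa cells incubated overnight at 37° C, then given paclitaxel (0.05 μM final) plus test compound (0.005–20 μM, 0.5% DMSO) together for 24 h at 37° C. Fixed cells stained for phospho-histone H3 Ser10 (mitotic cells) and Hoechst 33342 (cell count); imaging-derived mitotic index fitted by four-parameter Hill equation.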

Where two headings read alike, the source gives them in different places.

Consider `Cc1nsc(Nc2cnc(C(F)(F)F)cn2)c1C(=O)Nc1ccc(N2CCN(CC(F)(F)F)CC2)cn1` [Example 373, 3-methyl-N-{5-[4-(2,2,2-trifluoroethyl)piperazin-1-yl]pyridin-2-yl}-5-{[5-(trifluoromethyl)pyrazin-2-yl]amino}-1,2-thiazole-4-carboxamide], for which the IC50 (Homo sapiens, HeLa) is 190 nM.
On the same count and under the same terms, the value for `Cc1nsc(Nc2cnc(C(F)(F)F)cn2)c1C(=O)Nc1ccc(OC2CCCN(CCC(F)(F)F)C2)nc1` (centres unmarked) [Example 332, 3-methyl-5-{[5-(trifluoromethyl)pyrazin-2-yl]amino}-N-(6-{[1-(3,3,3-trifluoropropyl)piperidin-3-yl]oxy}pyridin-3-yl)-1,2-thiazole-4-carboxamide] was 25 nM; that for `Cc1nsc(Nc2cnc(C(F)(F)F)cn2)c1C(=O)Nc1ccc(O[C@H]2CCN(CCC(F)(F)F)C[C@@H]2F)nc1` [Example 364, N-(6-{[(3S,4S)-3-fluoro-1-(3,3,3-trifluoropropyl)piperidin-4-yl]oxy}pyridin-3-yl)-3-methyl-5-{[5-(trifluoromethyl)pyrazin-2-yl]amino}-1,2-thiazole-4-carboxamide] was 40 nM; that for `Cc1nsc(Nc2cnc3ccccc3n2)c1C(=O)Nc1ccc(OC2CCCN(C(=O)OC(C)(C)C)C2)nc1` (centres unmarked) [Example 31, tert-Butyl 3-{[5-({[3-methyl-5-(quinoxalin-2-ylamino)-1,2-thiazol-4-yl]carbonyl}-amino)pyridin-2-yl]oxy}piperidine-1-carboxylate] was 610 nM.
The same measure, in the same setting: with `Cc1nsc(Nc2cnc(C(F)(F)F)cn2)c1C(=O)Nc1ccc(OC[C@@H]2CCCN(CCC(F)(F)F)C2)nc1` [Example 377, 3-methyl-5-{[5-(trifluoromethyl)pyrazin-2-yl]amino}-N-(6-{[(3R)-1-(3,3,3-trifluoropropyl)piperidin-3-yl]methoxy}pyridin-3-yl)-1,2-thiazole-4-carboxamide] the figure was 88 nM; with `Cc1nsc(Nc2cnc(C(F)(F)F)cn2)c1C(=O)Nc1ccc(O[C@@H]2CCCN(CCC(F)(F)F)C2)nc1` [Example 387, 3-methyl-5-{[5-(trifluoromethyl)pyrazin-2-yl]amino}-N-(6-{[(3R)-1-(3,3,3-trifluoropropyl)piperidin-3-yl]oxy}pyridin-3-yl)-1,2-thiazole-4-carboxamide], 130 nM; with `Cc1nsc(Nc2cnc(C(F)(F)F)cn2)c1C(=O)Nc1ccc(OC2CCCN(CC(F)(F)F)C2)nc1` (centres unmarked) [Example 331, 3-methyl-N-(6-{[1-(2,2,2-trifluoroethyl)piperidin-3-yl]oxy}pyridin-3-yl)-5-{[5-(trifluoromethyl)pyrazin-2-yl]amino}-1,2-thiazole-4-carboxamide], 23 nM.
Consider `Cc1nsc(Nc2cnc(C(F)(F)F)cn2)c1C(=O)Nc1ccc(F)c(OC[C@H]2CCN(CC(F)F)C2)c1` [Example 397, N-(3-{[(3S)-1-(2,2-difluoroethyl)pyrrolidin-3-yl]methoxy}-4-fluorophenyl)-3-methyl-5-{[5-(trifluoromethyl)pyrazin-2-yl]amino}-1,2-thiazole-4-carboxamide], for which, where the note is “Homo sapiens, HeLa”, the IC50 worked out at 82 nM.
Still for that read-out and setting: the value for `Cc1nsc(Nc2cnc(C(F)(F)F)cn2)c1C(=O)Nc1ccc(O[C@@H]2CCN(CC(F)F)C2)nc1` [Example 379, N-(6-{[(3R)-1-(2,2-difluoroethyl)pyrrolidin-3-yl]oxy}pyridin-3-yl)-3-methyl-5-{[5-(trifluoromethyl)pyrazin-2-yl]amino}-1,2-thiazole-4-carboxamide] was 96 nM; that for `Cc1nsc(Nc2cnc(C(F)(F)F)cn2)c1C(=O)Nc1ccc(OCC2CCN(CC(F)(F)F)CC2)nc1` [Example 346, 3-methyl-N-(6-{[1-(2,2,2-trifluoroethyl)piperidin-4-yl]methoxy}pyridin-3-yl)-5-{[5-(trifluoromethyl)pyrazin-2-yl]amino}-1,2-thiazole-4-carboxamide] was 32 nM; that for `CCCN1CC[C@@H](Oc2ccc(NC(=O)c3c(C)nsc3Nc3cnc(C(F)(F)F)cn3)cn2)[C@H](F)C1` [Example 371, N-(6-{[(3R,4R)-3-fluoro-1-propylpiperidin-4-yl]oxy}pyridin-3-yl)-3-methyl-5-{[5-(trifluoromethyl)pyrazin-2-yl]amino}-1,2-thiazole-4-carboxamide] was 51 nM.
Still for that read-out and setting: with `Cc1nsc(Nc2cnc(C(F)(F)F)cn2)c1C(=O)Nc1ccc(F)c(OCC2CCCN(CCF)C2)c1` (centres unmarked) [Example 336, N-(4-fluoro-3-{[1-(2-fluoroethyl)piperidin-3-yl]methoxy}phenyl)-3-methyl-5-{[5-(trifluoromethyl)pyrazin-2-yl]amino}-1,2-thiazole-4-carboxamide] the figure was 61 nM.
The same measure, in the same setting: the value for `Cc1nsc(Nc2cnc(C(F)(F)F)cn2)c1C(=O)Nc1ccc(O[C@H]2CCCN(CC(F)F)C2)nc1` [Example 388, N-(6-{[(3S)-1-(2,2-difluoroethyl)piperidin-3-yl]oxy}pyridin-3-yl)-3-methyl-5-{[5-(trifluoromethyl)pyrazin-2-yl]amino}-1,2-thiazole-4-carboxamide] was 80 nM; that for `Cc1nsc(Nc2ccc(C#N)cn2)c1C(=O)Nc1ccc(OC2CCN(CCF)CC2)nc1` [Example 29, 5-[(5-Cyanopyridin-2-yl)amino]-N-(6-{[1-(2-fluoroethyl)piperidin-4-yl]oxy}pyridin-3-yl)-3-methyl-1,2-thiazole-4-carboxamide] was 20000 nM.
With `Cc1nsc(Nc2cnc(C(F)(F)F)cn2)c1C(=O)Nc1ccc(O[C@H]2CCN(CC(F)(F)F)C[C@@H]2F)nc1` [Example 363, N-(6-{[(3S,4S)-3-fluoro-1-(2,2,2-trifluoroethyl)piperidin-4-yl]oxy}pyridin-3-yl)-3-methyl-5-{[5-(trifluoromethyl)pyrazin-2-yl]amino}-1,2-thiazole-4-carboxamide], the IC50 (Homo sapiens, HeLa) was found to be 47 nM.
The same measure, in the same setting: with `Cc1nsc(Nc2cnc(C(F)(F)F)cn2)c1C(=O)Nc1ccc(F)c(OC[C@H]2CCN(CC(F)(F)F)C2)c1` [Example 398, N-(4-fluoro-3-{[(3S)-1-(2,2,2-trifluoroethyl)pyrrolidin-3-yl]methoxy}phenyl)-3-methyl-5-{[5-(trifluoromethyl)pyrazin-2-yl]amino}-1,2-thiazole-4-carboxamide] the figure was 56 nM; with `Cc1nsc(Nc2cnc(C(F)(F)F)cn2)c1C(=O)Nc1ccc(O[C@@H]2CCN(CCC(F)(F)F)C[C@H]2F)nc1` [Example 368, N-(6-{[(3R,4R)-3-fluoro-1-(3,3,3-trifluoropropyl)piperidin-4-yl]oxy}pyridin-3-yl)-3-methyl-5-{[5-(trifluoromethyl)pyrazin-2-yl]amino}-1,2-thiazole-4-carboxamide], 64 nM; with `Cc1nsc(Nc2cnc(C(F)(F)F)cn2)c1C(=O)Nc1ccc(O[C@@H]2CCCN(CC(F)(F)F)C2)nc1` [Example 386, 3-methyl-N-(6-{[(3R)-1-(2,2,2-trifluoroethyl)piperidin-3-yl]oxy}pyridin-3-yl)-5-{[5-(trifluoromethyl)pyrazin-2-yl]amino}-1,2-thiazole-4-carboxamide], 57 nM.
Still for that read-out and setting: the value for `Cc1nsc(Nc2cnc(C(F)(F)F)cn2)c1C(=O)Nc1ccc(OC2CCCN(C(CF)CF)C2)nc1` (centres unmarked) [Example 333, N-(6-{[1-(1,3-difluoropropan-2-yl)piperidin-3-yl]oxy}pyridin-3-yl)-3-methyl-5-{[5-(trifluoromethyl)pyrazin-2-yl]amino}-1,2-thiazole-4-carboxamide] was 200 nM; that for `Cc1nsc(Nc2cnc(C(F)(F)F)cn2)c1C(=O)Nc1ccc(N2CCN(CCC(F)(F)F)CC2)cn1` [Example 374, 3-methyl-5-{[5-(trifluoromethyl)pyrazin-2-yl]amino}-N-{5-[4-(3,3,3-trifluoropropyl)piperazin-1-yl]pyridin-2-yl}-1,2-thiazole-4-carboxamide] was 210 nM.
Same read-out and setting: with `CCCCN1CCC(COc2ccc(NC(=O)c3c(C)nsc3Nc3cnc(C(F)(F)F)cn3)cn2)C(F)(F)C1` (centres unmarked) [Example 396, N-{6-[(1-butyl-3,3-difluoropiperidin-4-yl)methoxy]pyridin-3-yl}-3-methyl-5-{[5-(trifluoromethyl)pyrazin-2-yl]amino}-1,2-thiazole-4-carboxamide] the figure was 18 nM.
On to `Cc1nsc(Nc2cnc(C(F)(F)F)cn2)c1C(=O)Nc1ccc(OCC2CCN(CC(F)(F)F)CC2(F)F)nc1` (centres unmarked) [Example 392, N-(6-{[3,3-difluoro-1-(2,2,2-trifluoroethyl)piperidin-4-yl]methoxy}pyridin-3-yl)-3-methyl-5-{[5-(trifluoromethyl)pyrazin-2-yl]amino}-1,2-thiazole-4-carboxamide], for which the IC50 was 27 nM. Besides, the IC50 (Homo sapiens, HeLa) worked out at 30 nM.
In the case of `Cc1nsc(Nc2cnc(C(F)(F)F)cn2)c1C(=O)Nc1ccc(O[C@@H]2CCCN(CC(F)F)C2)nc1` [Example 385, N-(6-{[(3R)-1-(2,2-difluoroethyl)piperidin-3-yl]oxy}pyridin-3-yl)-3-methyl-5-{[5-(trifluoromethyl)pyrazin-2-yl]amino}-1,2-thiazole-4-carboxamide], the IC50 (Homo sapiens, HeLa) turned out to be 300 nM.
Same read-out and setting: with `Cc1nsc(Nc2cnc(C(F)(F)F)cn2)c1C(=O)Nc1ccc(C2CCN(CC(F)(F)F)CC2)nc1` [Example 358, 3-methyl-N-{6-[1-(2,2,2-trifluoroethyl)piperidin-4-yl]pyridin-3-yl}-5-{[5-(trifluoromethyl)pyrazin-2-yl]amino}-1,2-thiazole-4-carboxamide] the figure was 68 nM; with `Cc1nsc(Nc2cnc(C(F)(F)F)cn2)c1C(=O)Nc1ccc(N2CCN(CCC(F)(F)F)CC2)nc1` [Example 361, 3-methyl-5-{[5-(trifluoromethyl)pyrazin-2-yl]amino}-N-{6-[4-(3,3,3-trifluoropropyl)piperazin-1-yl]pyridin-3-yl}-1,2-thiazole-4-carboxamide], 120 nM.
